The text below walks through data of patent US20240109895A1, “OXASPIRO SUBSTITUTED PYRROLOPYRAZOLE DERIVATIVE, INTERMEDIATE THEREOF, AND PREPARATION METHOD THEREFOR” (SHANGHAI HAIYAN PHARMACEUTICAL TECHNOLOGY CO., LTD., priority 2020, published 2024).

As usually defined, the EC50 is the concentration needed to bring the measured effect to its halfway point. What is called Emax is the maximal effect, on the per cent scale that the assay sets.

For assay [1], the system named is cAMP. As to the kind of experiment: HTRF-cAMP cell assay. (Time-resolved FRET reads energy transfer from a long-lived donor to a nearby acceptor.)
Assay [2] deals with β-arrestin. As to the kind of experiment: β-arrestin cell assay.

With `CC(C)[C@@H]1C[C@H](NCC[C@@]2(c3ccccn3)CCOC3(CCCC3)C2)c2ccnn21` [Compound I-1], in assay [1] (0.75 h, read-out: cAMP EC50(nM)), the 50% effective concentration (EC50) came to 6 nM. Also, the Emax was 86.4% in assay [1] (read-out: cAMP Emax(%) Morphine is 100%) and 1.3% in assay [2] (1.5 h, read-out: β-arrestin Emax(%) Morphine is 100%). The “bias (cAMP versus β-arrestin)” value in assay [2] (comparison of Table 1 and Table 2) is listed as “good bias”.
